Measurements reported in patent publication US9670227B2, “Thienopyrimidine derivatives, a process for their preparation and pharmaceutical compositions containing them” (LES LABORATOIRES SERVIER, priority 2013, dated 2017).
Read-outs that look alike come from different tables or passages of the source.

What was measured:
Mcl-1 protein = Mcl-1 protein (UniProtKB primary accession number: Q07820) (Homo sapiens, UniProt Q07820); test: Inhibition of Mcl-1 by fluorescence polarisation, Method 1; type: binding
Chain of Mcl-1 protein (Q07820 whole entry): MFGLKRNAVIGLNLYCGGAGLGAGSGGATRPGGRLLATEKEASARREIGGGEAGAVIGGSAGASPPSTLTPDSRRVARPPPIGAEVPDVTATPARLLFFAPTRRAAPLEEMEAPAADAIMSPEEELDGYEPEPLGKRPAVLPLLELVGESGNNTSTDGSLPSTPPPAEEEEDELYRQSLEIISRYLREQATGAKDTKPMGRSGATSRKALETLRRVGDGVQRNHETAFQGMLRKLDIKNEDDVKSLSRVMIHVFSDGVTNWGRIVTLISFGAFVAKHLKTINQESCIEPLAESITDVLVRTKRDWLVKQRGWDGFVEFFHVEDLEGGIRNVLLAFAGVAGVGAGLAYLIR
In short: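 Buffer of 10 mM HEPES pH 7.4 with 150 mM NaCl and 0.05% Tween 20 held 5 nM Mcl-1 and 1 nM fluorescein-tagged ligand (final). Compounds were tested as 11-point serial dilutions at 5% final DMSO, and binding was read by FP.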

[1] = tested on: H929 multiple myeloma tumour line; test: In vitro cytotoxicity, Microculture Tetrazolium Assay; type: cell-based; conditions: Homo sapiens, NCI-H929, 48 h, read-out: IC50 (μM) MTT H929
Protocol: The cytotoxicity studies were carried out on the H929 multiple myeloma tumour line.
The cells are distributed onto microplates and exposed to the test compounds for 48 hours.

[2] = fluorescence polarisation, Method 1, or Method 2, read-out: IC50 (M) Mcl-1 FP
[3] = H929 cells, 48 hours exposure, MTT
[4] = fluorescence polarisation test, Method 2 values are underlined in the patent (underlining not visible here), read-out: IC50 (M) Mcl-1 FP

With `COc1ccccc1CC(Oc1ncnc2sc(-c3ccc(F)c(O)c3)c(-c3ccc(OCCN4CCN(C)CC4)c(Cl)c3C)c12)C(=O)O` [Example 534, (2R)-2-{[(5Sa)-5-{3-chloro-2-methyl-4-[2-(4-methylpiperazin-1-yl)ethoxy]phenyl}-6-(4-fluoro-3-hydroxyphenyl)thieno[2,3-d]pyrimidin-4-yl]oxy}-3-(2-methoxyphenyl)propanoic acid] the IC50 (Mcl-1 protein; [2]) was 1.6e-08 M and the IC50 [1, 3] was 0.413 µM.
`CCCCn1nccc1COc1ccccc1CC(Oc1ncnc2sc(-c3ccc(-c4ccc(Cl)nc4)nc3)c(-c3ccc(OCCN4CCN(C)CC4)c(Cl)c3C)c12)C(=O)O` [Example 605, (2R)-3-{2-[(1-butyl-1H-pyrazol-5-yl)methoxy]phenyl}-2-{[6-(6′-chloro-2,3′-bipyridin-5-yl)-(5Sa)-5-{3-chloro-2-methyl-4-[2-(4-methylpiperazin-1-yl)ethoxy]phenyl}thieno[2,3-d]pyrimidin-4-yl]oxy}propanoic acid] showed an IC50 (Mcl-1 protein; [2]) of 8.2e-09 M and an IC50 [1, 3] of 0.254 µM.
Work on `Cc1c(-c2c(-c3ccc(F)cc3)sc3ncnc(OC(Cc4ccccc4OCc4cnccn4)C(=O)O)c23)ccc(OCCCC2CCCN2C)c1Cl` [Example 146, (2R)-2-{[(5Sa)-5-{3-chloro-2-methyl-4-[3-(1-methylpyrrolidin-2-yl)propoxy]phenyl}-6-(4-fluorophenyl)thieno[2,3-d]pyrimidin-4-yl]oxy}-3-[2-(pyrazin-2-ylmethoxy)phenyl]propanoic acid] yielded an IC50 (Mcl-1 protein; [4]) of 3.5e-08 M and an IC50 [1, 3] of 1.16 µM.
Compound `COc1cc(F)ccc1CC(Oc1ncnc2sc(-c3ccc(F)o3)c(-c3ccc(OCCN4CCN(C)CC4)c(Cl)c3C)c12)C(=O)O` [Example 692, (2R)-2-{[(5Sa)-5-{3-chloro-2-methyl-4-[2-(4-methylpiperazin-1-yl)ethoxy]phenyl}-6-(5-fluorofuran-2-yl)thieno[2,3-d]pyrimidin-4-yl]oxy}-3-(4-fluoro-2-methoxyphenyl)propanoic acid] has an IC50 (Mcl-1 protein; [2]) of 1e-08 M and an IC50 [1, 3] of 0.079 µM.
Work on `Cc1cc(COc2ccccc2CC(Oc2ncnc3sc(-c4ccc(F)cc4)c(-c4ccc(OCCN5CCN(C)CC5)c(Cl)c4C)c23)C(=O)O)ccn1` [Example 16, (2R)-2-{[(5Sa)-5-{3-chloro-2-methyl-4-[2-(4-methylpiperazin-1-yl)ethoxy]phenyl}-6-(4-fluorophenyl)thieno[2,3-d]pyrimidin-4-yl]oxy}-3-{2-[(2-methylpyridin-4-yl)methoxy]phenyl}propanoic acid] yielded an IC50 (Mcl-1 protein; [4]) of 5.9e-09 M and an IC50 [1, 3] of 0.095 µM.
Compound `COc1ccccc1CC(Oc1ncnc2sc(-c3csc4ccsc34)c(-c3ccc(OCCN4CCN(C)CC4)c(Cl)c3C)c12)C(=O)O` [Example 571, (2R)-2-{[(5Sa)-5-{3-chloro-2-methyl-4-[2-(4-methylpiperazin-1-yl)ethoxy]phenyl}-6-(thieno[3,2-b]thiophen-3-yl)thieno[2,3-d]pyrimidin-4-yl]oxy}-3-(2-methoxyphenyl)propanoic acid] has an IC50 (Mcl-1 protein; [2]) of 4.4e-08 M and an IC50 [1, 3] of 0.559 µM.
For `CCn1nccc1COc1ccccc1CC(Oc1ncnc2sc(-c3cccc(F)c3F)c(-c3ccc(OCCN4CCN(C)CC4)c(Cl)c3C)c12)C(=O)O` [Example 704, (2R)-2-{[(5Sa)-5-{3-chloro-2-methyl-4-[2-(4-methylpiperazin-1-yl)ethoxy]phenyl}-6-(2,3-difluorophenyl)thieno[2,3-d]pyrimidin-4-yl]oxy}-3-{2-[(1-ethyl-1H-pyrazol-5-yl)methoxy]phenyl}propanoic acid], the IC50 (Mcl-1 protein; [2]) was 9.9e-09 M and the IC50 [1, 3] was 0.025 µM.
`Cc1c(-c2c(-c3ccco3)sc3ncnc(OC(Cc4ccccc4O)C(=O)O)c23)ccc(OCCN2CCN(C)CC2)c1Cl` [Example 207, (2R)-2-{[-[(5Sa)-5-{3-chloro-2-methyl-4-[2-(4-methylpiperazin-1-yl)ethoxy]phenyl}-6-(furan-2-yl)thieno[2,3-d]pyrimidin-4-yl]oxy}-3-(2-hydroxyphenyl)propanoic acid] showed an IC50 (Mcl-1 protein; [4]) of 6.5e-09 M and an IC50 [1, 3] of 0.186 µM.
Work on `Cc1c(-c2c(-c3ccc(F)cc3)sc3ncnc(OC(Cc4ccccc4OCc4cnccn4)C(=O)O)c23)ccc(OCCCN(C)C)c1Cl` [Example 147, (2R)-2-{[(5Sa)-5-{3-chloro-4-[3-(dimethylamino)propoxy]-2-methylphenyl}-6-(4-fluorophenyl)thieno[2,3-d]pyrimidin-4-yl]oxy}-3-[2-(pyrazin-2-ylmethoxy)phenyl]propanoic acid] yielded an IC50 (Mcl-1 protein; [4]) of 2.4e-08 M and an IC50 [1, 3] of 0.787 µM.
With `Cc1c(-c2c(-c3ccco3)sc3ncnc(OC(Cc4ccccc4OCc4nccc5ccccc45)C(=O)O)c23)ccc(OCCN2CCN(C)CC2)c1Cl` [Example 284, (2R)-2-{[(5Sa)-5-{3-chloro-2-methyl-4-[2-(4-methylpiperazin-1-yl)ethoxy]phenyl}-6-(furan-2-yl)thieno[2,3-d]pyrimidin-4-yl]oxy}-3-[2-(isoquinolin-1-ylmethoxy)phenyl]propanoic acid] the IC50 (Mcl-1 protein; [4]) was 4.8e-08 M and the IC50 [1, 3] was 1.79 µM.
`COc1cccc(-c2nccc(COc3ccccc3CC(Oc3ncnc4sc(-c5ccc(F)cc5)c(-c5ccc(OCCN6CCN(C)CC6)c(Cl)c5C)c34)C(=O)O)n2)c1` [Example 112, (2R)-2-{[(5Sa)-5-{3-chloro-2-methyl-4-[2-(4-methylpiperazin-1-yl)ethoxy]phenyl}-6-(4-fluorophenyl)thieno[2,3-d]pyrimidin-4-yl]oxy}-3-(2-{[2-(3-methoxyphenyl)pyrimidin-4-yl]methoxy}phenyl)propanoic acid] gave an IC50 (Mcl-1 protein; [4]) of 5.6e-09 M and an IC50 [1, 3] of 0.011 µM.
`COc1ccccc1CC(Oc1ncnc2sc(-c3ccco3)c(-c3ccc(OCC4CCCN4C)c(Cl)c3C)c12)C(=O)O` [Example 298, (2R)-2-{[(5Sa)-5-(3-chloro-2-methyl-4-{[(2S)-1-methylpyrrolidin-2-yl]methoxy}phenyl)-6-(furan-2-yl)thieno[2,3-d]pyrimidin-4-yl]oxy}-3-(2-methoxyphenyl)propanoic acid] was tested, and the IC50 (Mcl-1 protein; [4]) was 1.2e-08 M and the IC50 [1, 3] was 1.14 µM.
Work on `COc1ccccc1-c1nccc(COc2ccccc2CC(Oc2ncnc3sc(-c4ccc(OCc5ccc(C)cc5)cc4)c(-c4ccc(OCCN5CCN(C)CC5)c(Cl)c4C)c23)C(=O)O)n1` [Example 768, (2R)-2-[((5Sa)-5-{3-chloro-2-methyl-4-[2-(4-methylpiperazin-1-yl)ethoxy]phenyl}-6-{4-[(4-methylbenzyl)oxy]phenyl}thieno[2,3-d]pyrimidin-4-yl)oxy]-3-(2-{[2-(2-methoxyphenyl)pyrimidin-4-yl]methoxy}phenyl)propanoic acid] yielded an IC50 (Mcl-1 protein; [2]) of 1.04e-09 M and an IC50 [1, 3] of 0.039 µM.
Work on `CC#Cc1sc2ncnc(OC(Cc3ccccc3OCc3ccnc(OC)n3)C(=O)O)c2c1-c1ccc(OCCN2CCN(C)CC2)c(Cl)c1C` [Example 486, (2R)-2-{[(5Sa)-5-{3-chloro-2-methyl-4-[2-(4-methylpiperazin-1-yl)ethoxy]phenyl}-6-(prop-1-yn-1-yl)thieno[2,3-d]pyrimidin-4-yl]oxy}-3-{2-[(2-methoxypyrimidin-4-yl)methoxy]phenyl}propanoic acid] yielded an IC50 (Mcl-1 protein; [2]) of 1.9e-09 M and an IC50 [1, 3] of 0.146 µM.
For `COc1ccccc1CC(Oc1ncnc2sc(-c3cc4sccc4s3)c(-c3ccc(OCCN4CCN(C)CC4)c(Cl)c3C)c12)C(=O)O` [Example 530, (2R)-2-{[(5Sa)-5-{3-chloro-2-methyl-4-[2-(4-methylpiperazin-1-yl)ethoxy]phenyl}-6-(thieno[3,2-b]thiophen-2-yl)thieno[2,3-d]pyrimidin-4-yl]oxy}-3-(2-methoxyphenyl)propanoic acid], the IC50 (Mcl-1 protein; [2]) was 1.2e-07 M and the IC50 [1, 3] was 1.59 µM.
`CCc1sc2ncnc(OC(Cc3ccccc3)C(=O)O)c2c1-c1ccc(OCCc2ccncc2)c(Cl)c1C` [Example 397, (2R)-2-[((5Sa)-5-{3-chloro-2-methyl-4-[2-(pyridin-4-yl)ethoxy]phenyl}-6-ethylthieno[2,3-d]pyrimidin-4-yl)oxy]-3-phenylpropanoic acid] was tested, and the IC50 (Mcl-1 protein; [2]) was 8e-09 M and the IC50 [1, 3] was 15.7 µM.
`COc1cc(COc2ccccc2CC(Oc2ncnc3sc(-c4ccc(F)o4)c(-c4ccc(OCCN5CCN(C)CC5)c(Cl)c4C)c23)C(=O)O)ncn1` [Example 162, (2R)-2-{[(5Sa)-5-{3-chloro-2-methyl-4-[2-(4-methylpiperazin-1-yl)ethoxy]phenyl}-6-(5-fluorofuran-2-yl)thieno[2,3-d]pyrimidin-4-yl]oxy}-3-{2-[(6-methoxypyrimidin-4-yl)methoxy]phenyl}propanoic acid] showed an IC50 (Mcl-1 protein; [4]) of 9.9e-09 M and an IC50 [1, 3] of 0.027 µM.
`COCCOc1ccccc1CC(Oc1ncnc2sc(-c3ccc(F)c(OC)c3)c(-c3ccc(OCCN4CCN(C)CC4)c(Cl)c3C)c12)C(=O)O` [Example 387, (2R)-2-{[(5Sa)-5-{3-chloro-2-methyl-4-[2-(4-methylpiperazin-1-yl)ethoxy]phenyl}-6-(4-fluoro-3-methoxyphenyl)thieno[2,3-d]pyrimidin-4-yl]oxy}-3-[2-(2-methoxyethoxy)phenyl]propanoic acid] was tested, and the IC50 (Mcl-1 protein; IC50 (M) Mcl-1 FP, fluorescence polarisation test, Method 2 values are underlined in the patent (underlining not visible here)) was 4e-09 M and the IC50 [1] was 0.202 µM.
Work on `Cc1c(-c2c(-c3ccc(F)cc3)sc3ncnc(OC(Cc4ccccc4OCc4ccncn4)C(=O)O)c23)ccc(OCCN2CCN(C)CC2)c1Cl` [Example 68, (2R)-2-{[(5Sa)-5-{3-chloro-2-methyl-4-[2-(4-methylpiperazin-1-yl)ethoxy]phenyl}-6-(4-fluorophenyl)thieno[2,3-d]pyrimidin-4-yl]oxy}-3-[2-(pyrimidin-4-ylmethoxy)phenyl]propanoic acid] yielded an IC50 (Mcl-1 protein; [4]) of 9.1e-09 M and an IC50 [1, 3] of 0.035 µM.
Compound `COc1cnc(COc2ccccc2CC(Oc2ncnc3sc(-c4ccco4)c(-c4ccc(OCCN5CCN(C)CC5)c(Cl)c4C)c23)C(=O)O)cn1` [Example 270, (2R)-2-{[(5Sa)-5-{3-chloro-2-methyl-4-[2-(4-methylpiperazin-1-yl)ethoxy]phenyl}-6-(furan-2-yl)thieno[2,3-d]pyrimidin-4-yl]oxy}-3-{2-[(5-methoxypyrazin-2-yl)methoxy]phenyl}propanoic acid] has an IC50 (Mcl-1 protein; [4]) of 1.2e-08 M and an IC50 [1, 3] of 0.068 µM.
